What was measured:
E. Coli = E. Coli cultures exposed 45 minutes at 37° C., plate counts; format: cell-based; conditions: peroxide 5 g/l and/or ASP 1 3 g/l; for Counts recorded: 45 minutes at 37° C., controls 40×10^8 (time zero), 37×10^8 (45 minutes), average of three; for reduction in bacteria count / kill: 45 minutes treatment at 37° C.
Description: Cultures of E. Coli in Ringer's saline were exposed to various conditions for 45 minutes at 37° C. These were then serially diluted (eight 10-fold dilutions) and plated onto nutrient agar (treatments were done in triplicate to ensure reproducibility), and five tests were done overall as shown below. Initial E. Coli concentration was approximately 5×10^9/ml and cultures were grown in nutrient broth overnight before being centrifuged and then re-suspended in saline. A E. Coli control-time zero. B E. Coli control-time 45 minutes C E. Coli plus peroxide at 5 g/l for 45 minutes D E. Coli plus […] at 3 g/l for 45 minutes E E. Coli plus peroxide of 5 g/l plus […] (3 g/l) for 45 minutes Plates were observed and counted after 2 days incubation at 37° C.

[1] = Bleaching of dye solutions (degree of dye removal); conditions: activator 2 g/l
Description: The bleaching solution was prepared as follows: […] Bleach activator 2 g/l […] Total volume 25 ml pH 3 was obtained with acetic acid; pH 7 was obtained with sodium dihydrogen phosphate (0.1M) and sodium hydroxide (0.1M); pH 10 was obtained using sodium carbonate. […] The degree of dye removal or bleaching (R %) was calculated using the following equation: % R=1-(A2/A1)×100 […]

Compound	Counts recorded (E. Coli)	reduction in bacteria count / kill (E. Coli)	degree of dye removal % R ([1]; pH 3, 20° C., 3 hours) [%]	degree of dye removal % R ([1]; pH 3, 20° C., 24 hours) [%]	degree of dye removal % R ([1]; pH 7, 20 C., 3 hours) [%]	degree of dye removal % R ([1]; pH 7, 20 C., 24 hours) [%]	degree of dye removal % R ([1]; pH 10, 20°C., 3 hours) [%]	degree of dye removal % R ([1]; pH 10, 20°C., 24 hours) [%]
NC(=O)S(=O)(=O)O [ASP 1]	7.9×10^8 colony forming units ml^−1	about 80%	–	–	–	–	–	–
OO [H2O2, Hydrogen peroxide]	12.9×10^8 colony forming units ml^−1	~66%	3.3	85	2.7	7.1	11.3	24.8
